Key:
N1S1 cells [1] = assay: Cellular uptake of curcumin (confocal images, flow cytometry)
Protocol: Briefly, the N1S1 cells (1×10^5/mL) were cultured in a confocal dish (MatTek, 35 mm dish with 14 mm glass bottom). The cellular nucleus was stained with DAPI. Cell membranes were stained with Dil red (D282) following the protocol from ThermoFisher. […] The cells were then fixed by 4% paraformaldehyde and visualized with a confocal microscope (Nikon AIRS).
(§4) N1S1 cells were seeded onto the six-well plate (2×10^5/well). […] After washing the cells with PBS, they were fixed with 4% formalin at room temperature for 15 minutes. The results were examined by flow cytometry.

N1S1 cells [2] = assay: Cell viability assay (CCK-8); type: cell-based
Protocol: N1S1 cells (1×10^4/mL) were seeded onto 96-well plates. […] Then the cells were washed with PBS and replenished with fresh media. After 24 h or 48 hr incubation, the cells viability was measured with CCK-8 assay.

GPX-4 = tested on: GPX-4
Protocol: (§1) N1S1 cells were seeded in the 8 cm culture dishes and cultured at 5% CO2, 37° C. overnight. The cells were treated with various groups for […]: ethanol (25, 20, 15, 10, and 5%) for 4, 12, and 24 h, and 15% ethanol+Cur1, 10% ethanol+Cur1, 15% ethanol+Cur2, 10% ethanol+Cur2, 15% ethanol+Cur3, and 10% ethanol+Cur3 for 24 h. […] No treatment of N1S1 was used as control. The cell lysates were collected and analyzed by Western blotting according to the manufacturer's instructions. Antibodies were used listed as below: GPX4 Rabbit anti-Human, Mouse, Rat, Polyclonal, Invitrogen™, catalog number: PIPA579321, dilution 0.1-0.5 μg/mL; p-STAT3 Rabbit mAb, cell signaling, catalog number: 9145, dilution 1:2000; p-p65 Rabbit mAb, cell signaling, catalog number: 3033, dilution 1:1000; PD-L1 Polyclonal Antibody, Invitrogen™, catalog number: PA5-20343, dilution 0.5-2 μg/mL; β-Actin (8H10D10) Mouse mAb (HRP Conjugate), cell signaling, catalog number: 12262, dilution 1:1000.
Western blot assay was then used to identify specific molecules associated with cancer cell response to the ethanol treatments. […] However, relatively low ethanol concentrations (10, 5, and 1%) increased the GPX-4 level at 12 h post-treatment compared to 4 h post-treatment, indicating a defensive response to the oxidative stress caused by ethanol. […] This is in agreement with the results of the cell viability and Annexin-V/PI assays (FIG. 1).

p-STAT3 = assay: Western blot of p-STAT3 in N1S1 hepatoma cells; type: cell-based; details: ethanol 10, 5 and 1%
Protocol: as §1
(§2) Western blot assay was then used to identify specific molecules associated with cancer cell response to the ethanol treatments. […] However, relatively low ethanol concentrations (10, 5, and 1%) increased the GPX-4 level at 12 h post-treatment compared to 4 h post-treatment, indicating a defensive response to the oxidative stress caused by ethanol. […]

p-p65 = assay: Western blot of p-p65 in N1S1 hepatoma cells; type: cell-based; details: ethanol 10, 5 and 1%
Protocol: as §1, §2

PD-L1 = assay: Western blot / flow cytometry of PD-L1 in N1S1 hepatoma cells; type: cell-based; details: ethanol 10, 5 and 1%
Protocol: as §1, §2

[3] = tested on: N1S1 HCC tumors in rat liver; assay: In vivo abscopal effect of ethanol-curcumin treated N1S1 cells, tumor volume by MRI; details: left lobe inoculated with treated N1S1 cells (10% ethanol or 10% ethanol plus Cur2 0.5% w/v) mixed with non-treated cells, MRI 8-day post-inoculation
From the text: (§3) The rats in the control group were only inoculated in the right lobe of the liver with 5 million non-treated N1S1 cells. The right-side tumors (arrow in FIG. 5A) were established for testing abscopal effect. These tumors were collected for an immune status assay. The tumor in the control group was used as the baseline.

[4] = tested on: N1S1 HCC tumors in rat liver; assay: In vivo immune status of right-side tumors by flow cytometry; details: 8 days post treatment
From the text: To test in vivo tumor neutrophil cell populations, rats were sacrificed, and tumors were harvested at 8 days post treatment and examined by flow cytometry after immunofluorescence staining with anti-CD45-BV605, anti-Granulocytes-PE, and anti-CD11b/c-PerCP/eF710. To determine the intra-tumoral infiltration of CD8+ (CD3+CD4-CD8+), lymphocytes were stained with anti-CD45-BV605, anti-CD3-FITC, anti-CD11b/c-PerCP/eF710, anti-CD4-APC/Cy7, anti-CD8-V450, and anti-IFN-gamma-AF647. To determine the intra-tumoral infiltration of CD4+ (Treg), lymphocytes were stained with anti-CD45-BV605, anti-CD3-FITC, anti-CD11b/c-PerCP/eF710, anti-CD4-APC/Cy7, anti-CD8-V450, anti-CD25-PE, and anti-Foxp3-APC. All antibodies were diluted with the ratio of 1:100 and signal color beads (OneComp eBeads™ Compensation Beads) and unstained bead were used for compensation.
as §3

N1S1 cells [5] = tested on: N1S1 cells
Protocol: as §4

| SMILES | cellular uptake of curcumin (green fluorescence signal) (N1S1 cells [1]; higher concentration of ethanol in ethanol-curcumin solution) | time curcumin maintained in N1S1 hepatoma cells (N1S1 cells [1]; uptake amplified by the ethanol solution) | cell-killing effect on N1S1 hepatoma cells (CCK-8 cell viability) (N1S1 cells [2]; ethanol 15% to 1%, 5-min and 10-min coincubation) | growth inhibition of N1S1 hepatoma cells (CCK-8 cell viability) (N1S1 cells [2]; ethanol 25% and 20%, 5-min and 10-min coincubation, 24 h and 48 h post-treatment) | liver cancer cell N1S1 growth (N1S1 cells [2]; ethanol 25% to 5%, 10 min coincubation) | cell viability at 48 h post-treatment (N1S1 cells [2]; lower ethanol concentrations, 5-min and 10-min coincubation, 48 h vs 24 h) | GPX-4 level at 12 h compared to 4 h post-treatment (GPX-4; ethanol 10, 5 and 1%) | expression of GPX-4 at 24 h post-treatment (GPX-4; ethanol 10, 5 and 1%, 24 h) | GPX-4 level (GPX-4; ethanol 25, 20 and 15%, 4 h, 12 h and 24 h) | p-STAT3 activation (p-STAT3) | p-p65 activation (p-p65) | PD-L1 expression (PD-L1) | average tumor volume of right-side HCC tumors [3] | IL-17 T cells in right-side tumor, difference among groups [4] | neutrophil population in right-side tumor compared to control [4] | population of Tregs in right-side tumor compared to control group [4] | early apoptosis and late apoptosis populations (Annexin-V/PI) (N1S1 cells [5]; 10-min coincubation, various ethanol concentrations, found even at 0 h) | live cell populations at 48 h (N1S1 cells [5]; ethanol 15%, 10%, 5%, 1%, 48 h) | late apoptosis population at 48 h compared to 0 h and 24 h (N1S1 cells [5]; ethanol 25% and 20%, 10-min coincubation) | live cell populations (Annexin-V negative and PI negative) (N1S1 cells [5]; ethanol 25% and 20%, all time points (0, 24, 48 h)) |
| --- | --- | --- | --- | --- | --- | --- | --- | --- | --- | --- | --- | --- | --- | --- | --- | --- | --- | --- | --- | --- |
| COc1cc(/C=C/C(=O)CC(=O)/C=C/c2ccc(O)c(OC)c2)ccc1O [curcumin, (1E,6E)-1,7-bis(4-hydroxy-3-methoxyphenyl)hepta-1,6-diene-3,5-dione] | higher cellular uptake | at least 48 h | – | – | – | – | – | – | – | – | – | – | – | – | – | – | – | – | – | – |
| CCO [ethanol] | – | – | modest cell-killing effect | efficient growth inhibition | inhibits | recovery of cell viability | increased | reduced to normal levels | consistently low | consistent activation | consistent activation | upregulation | about 130 mm^3 | no significant difference | no significant difference | decreased population | Dosage-dependent increase | higher live cell populations | decreased late apoptosis population | remained low |

From patent US20250325499A1, “IMMUNO-ABLATION TREATMENT FOR SOLID TUMORS” (Northwestern University, priority 2022, published 2025)
